For ten compounds, IC50 results are on record in patent publication US20220289753A1, “SHP2 INHIBITORS” (IRBM S.P.A., priority 2019, published 2022).

Test [1] deals with T1, SHP-2 enzyme (Met1-Leu525) (Homo sapiens, UniProt Q06124).
T1 construct: synthetized by Origene, Met1-Leu525, cat #TP750155; purchased Origene TP750155
T1 sequence (Q06124 1-525): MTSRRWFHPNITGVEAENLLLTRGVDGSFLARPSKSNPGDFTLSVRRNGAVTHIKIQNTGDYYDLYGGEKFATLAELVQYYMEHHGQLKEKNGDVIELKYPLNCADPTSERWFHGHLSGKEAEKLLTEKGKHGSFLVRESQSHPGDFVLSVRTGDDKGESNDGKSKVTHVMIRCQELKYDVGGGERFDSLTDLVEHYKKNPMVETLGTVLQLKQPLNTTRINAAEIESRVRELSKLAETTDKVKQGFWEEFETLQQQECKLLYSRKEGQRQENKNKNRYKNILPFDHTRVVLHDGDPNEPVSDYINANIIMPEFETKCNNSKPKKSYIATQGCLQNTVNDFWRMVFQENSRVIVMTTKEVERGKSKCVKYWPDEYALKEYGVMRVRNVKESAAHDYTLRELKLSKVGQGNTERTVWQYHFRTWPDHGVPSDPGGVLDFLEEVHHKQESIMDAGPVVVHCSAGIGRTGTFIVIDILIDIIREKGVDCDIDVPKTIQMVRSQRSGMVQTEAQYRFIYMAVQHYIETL
The experiment in a line: SHP2 inhibition enzymatic assay (DiFMUP substrate, IRS1 peptide activation). Type of test: biochemical. Particulars: SHP2 wt; activated by 500 nM IRS1 peptide; 75 μM DiFMUP substrate. The method in brief: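 SHP-2 (Met1-Leu525, 0.5 nM final) preincubated 30 min with compounds and IRS1 activating peptide in HEPES pH 7.2 buffer with NaCl, KCl, EDTA, tween-20, 5 mM DTT. DiFMUP then added for 30 min at room temperature and fluorescence read. IC50 from four-parameter logistic fit of % inhibition.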

Test [2] has as its system ERK phosphorylation in KYSE-520 cells. Briefly: Phospho-ERK cellular assay (Advanced phospho-ERK1/2 (Thr202/Tyr204) TR-FRET kit). It is filed as cell-based. The conditions noted are these: Homo sapiens, KYSE-520, 2 h, KYSE-520 cells, 2 h at 37° C., TR-FRET; read-out: pERK IC50. The method, then: Phospho-ERK Cellular Assay
ERK phosphorylation was detected using the “Advanced phospho-ERK1/2 (Thr202/Tyr204)” TR-FRET kit (Cisbio, Cat #64AERPEG/H), following the manufacturer reagents and instructions. […] After an overnight incubation, cells were treated with DMSO serial diluted compounds and incubated for 2 h at 37° C. After incubation, 2 μL/well of 4× Lysis Buffer (Cisbio 64KL1FDF), were added and incubated with cells for 30 min on gentle shaking. Finally, lysates were added with 2 μL/well of Eu cryptate (donor) and D2 (acceptor) conjugated antibodies (as provided by the Cisbio kit #64AERPEG/H) diluted 1:100 in Detection Buffer (as provided by the Cisbio kit #64AERPEG/H). Plates were then sealed and incubated at room temperature in the dark. After an overnight incubation, the TR-FRET signal was detected on a suitable reader (Envision, PerkinElmer). The lower the TR-FRET signal the higher the higher the SHP2 inhibition in cells. […] The percentage activity is fitted against the compound dilutions with a four-parameter logistic regression. The inflection point (i.e. the concentration at which half-maximal inhibition is achieved) is the IC50.
(Time-resolved FRET reads energy transfer from a long-lived donor to a nearby acceptor.)

Structures are written as SMILES. Some results are limits rather than exact numbers.

The IC50 is the concentration that gives 50% inhibition. On to `COc1ccc2c(c1)[C@@H](N)C1(CCN(c3nc4nc(Sc5ccnc(N)c5Cl)cnc4[nH]3)CC1)C2` [Example 205, (S)-1′-(5-((2-amino-3-chloropyridin-4-yl)thio)-1H-imidazo[4,5-b]pyrazin-2-yl)-6-methoxy-1,3-dihydrospiro[indene-2,4′-piperidin]-1-amine], for which the 50% inhibitory concentration (IC50) in test [1] was less than 500 nM; in test [2], less than 1000 nM.

`N[C@@H]1c2ccccc2CC12CCN(c1nc3nc(Sc4cccc5nonc45)cnc3[nH]1)CC2` [Example 213, (S)-1′-(5-(benzo[c][1,2,5]oxadiazol-4-ylthio)-1H-imidazo[4,5-b]pyrazin-2-yl)-1,3-dihydrospiro[indene-2,4′-piperidin]-1-amine]: the IC50 is less than 500 nM in test [1] and less than 1000 nM in test [2].

On to `CN(C)c1nccc(Sc2cnc3[nH]c(N4CCC5(CC4)Cc4ncccc4[C@H]5N)nc3n2)c1Cl` [Example 154, (S)-1′-(5-((3-chloro-2-(dimethylamino)pyridin-4-yl)thio)-1H-imidazo[4,5-b]pyrazin-2-yl)-5,7-dihydrospiro[cyclopenta[b]pyridine-6,4′-piperidin]-5-amine], for which the concentration for half-maximal inhibition (IC50) in test [1] is less than 500 nM; in test [2] it was more than 5000 nM.

For `N[C@@H]1c2ccccc2CC12CCN(c1nc3nc(Sc4ccnc5cccc(F)c45)cnc3[nH]1)CC2` [Example 218, (S)-1′-(5-((5-fluoroquinolin-4-yl)thio)-1H-imidazo[4,5-b]pyrazin-2-yl)-1,3-dihydrospiro[indene-2,4′-piperidin]-1-amine], the half-maximal inhibitory concentration (IC50) in test [1] is less than 500 nM; in test [2] it was less than 1000 nM.

Regarding `N[C@@H]1c2cccnc2CC12CCN(c1nc3nc(Sc4cccnc4C(F)(F)F)cnc3[nH]1)CC2` [Example 139, (S)-1′-(5-((2-(trifluoromethyl)pyridin-3-yl)thio)-1H-imidazo[4,5-b]pyrazin-2-yl)-5,7-dihydrospiro[cyclopenta[b]pyridine-6,4′-piperidin]-5-amine], the half-maximal inhibitory concentration (IC50) in test [1] was less than 500 nM; in test [2], less than 1000 nM.

Take `CN1C(=O)C(F)(F)c2c(Sc3cnc4[nH]c(N5CCC6(CC5)Cc5ccccc5[C@H]6N)nc4n3)cccc21` [Example 134, (S)-4-((2-(1-amino-1,3-dihydrospiro[indene-2,4′-piperidin]-1′-yl)-1H-imidazo[4,5-b]pyrazin-5-yl)thio)-3,3-difluoro-1-methylindolin-2-one]: the IC50 in test [1] is less than 500 nM; in test [2], less than 1000 nM.

With `Cc1nc(COc2cnccc2Sc2cnc3[nH]c(N4CCC5(CC4)Cc4ccccc4[C@H]5N)nc3n2)co1` [Example 227, (S)-1′-(5-((3-((2-methyloxazol-4-yl)methoxy)pyridin-4-yl)thio)-1H-imidazo[4,5-b]pyrazin-2-yl)-1,3-dihydrospiro[indene-2,4′-piperidin]-1-amine], the 50% inhibitory concentration (IC50) in test [1] is less than 500 nM; in test [2], more than 5000 nM.

With `N[C@@H]1c2ccccc2CC12CCN(c1nc3ncc(Sc4cccc5nccnc45)nc3[nH]1)CC2` [Example 179, (S)-1′-(5-(quinoxalin-5-ylthio)-1H-imidazo[4,5-b]pyrazin-2-yl)-1,3-dihydrospiro[indene-2,4′-piperidin]-1-amine], the values for the half-inhibitory concentration (IC50) in test [1] and in test [2] were less than 500 nM and less than 1000 nM, respectively.

`N[C@@H]1c2cccnc2CC12CCN(c1nc3ncc(Sc4ccnc(NC5CC5)c4Cl)nc3[nH]1)CC2` [Example 161, (S)-1′-(6-((3-chloro-2-(cyclopropylamino)pyridin-4-yl)thio)-1H-imidazo[4,5-b]pyrazin-2-yl)-5,7-dihydrospiro[cyclopenta[b]pyridine-6,4′-piperidin]-5-amine]: the IC50 in test [1] was less than 500 nM; in test [2], 1000 to 5000 nM.

As to `N[C@@H]1c2ccccc2CC12CCN(c1nc3ncc(Sc4ccnc5ccccc45)nc3[nH]1)CC2` [Example 176, (S)-1′-(6-(quinolin-4-ylthio)-1H-imidazo[4,5-b]pyrazin-2-yl)-1,3-dihydrospiro[indene-2,4′-piperidin]-1-amine], the figures for the IC50 in test [1] and in test [2] were less than 500 nM and less than 1000 nM, respectively.
